Assay results as given in patent publication US10723709B2, “Protease inhibitors” (MEDIVIR AB, priority 2008, dated 2020).

Legend:
[1] = In vivo mouse PK, oral administration (FIG. 1); parameters: species or system male C57Bl mice; conditions: mice, orally administered 60 μmol/kg in 1% Methocel A4C vehicle; compared with Example 2 of WO2008 007107
From the text: FIG. 1 depicts plasma concentration against time for male C57Bl mice orally administered a compound of the invention or a compound of the prior art.
Various embodiments of the invention will now be described by way of illustration only with reference to the following Examples and FIG. 1 which depicts plasma concentration against time for male C57Bl mice orally administered a compound of the invention or a compound of the prior art.

[2] = reference markers of the permeability assay; cited from earlier work

Protocol for Caco-2 cells: This experiment measures transport of inhibitors through the cells of the human gastroenteric canal. The assay uses the well known Caco-2 cells with a passage number between 40 and 60.
Apical to Basolateral Transport
The basolateral and the apical wells will contain 1.5 mL and 0.4 mL transport buffer (TB), respectively, and the standard concentration of the tested substances is 10 μM. Furthermore all test solutions and buffers will contain 1% DMSO. Prior to the experiment the transport plates are pre-coated with culture medium containing 10% serum for 30 minutes to avoid nonspecific binding to plastic material. After 21 to 28 days in culture on filter supports the cells are ready for permeability experiments. […]
0.5 mL transport buffer (HBSS, 25 mM MES, pH 6.5) is added to the inserts and the cell monolayers equilibrated in the transport buffer system for 30 minutes at 37° C. in a polymix shaker. After being equilibrated to the buffer system the Transepithelial electrical resistance value (TEER) is measured in each well by an EVOM chop stick instrument. […]
300 μL will be taken from the basolateral (receiver) wells at each scheduled time point and the post value of TEER is measured at the end the experiment. […]
Determination of the cumulative fraction absorbed, FAcum, versus time. FAcum is calculated from: […]
The determination of permeability coefficients (Papp, cm/s) are calculated from: […]

| Compound | % absorption in man [2] | also measured |
| --- | --- | --- |
| C#C[C@@H]1CN(C(=O)[C@H](CC(C)C)NC(=O)c2ccc(-c3nc(N4CCN(C)CC4)sc3F)cc2)[C@@H]2C(=O)CO[C@H]12 [Example 2, N-[1-6-(ethynyl-3-oxo-hexahydro-furo[3,2-b]pyrrole-4-carbonyl)-3-methyl-butyl]-4-[5-fluoro-2-(4-methyl-piperazin-1-yl)thiazol-4-yl]-benzamide] |  | in vivo exposure (whether measured as Cmax or AUC) [1]: very much greater |
| N[C@@H](Cc1ccccc1)C(=O)O [L-Phenylalanine] | 100% |  |
| OC[C@@H](O)[C@@H](O)[C@H](O)[C@H](O)CO [Mannitol] | 16% |  |
| CN(Cc1cnc2nc(N)nc(N)c2n1)c1ccc(C(=O)N[C@@H](CCC(=O)O)C(=O)O)cc1 [Methotrexate] | 20% |  |
| N—((S)-1-((3aS, 6R, 6aS)-6-methoxy-oxodihydro-2H-furo[3,2-b]pyrrol-4(5H, 6H, 6aH)-yl)-4-methyl-oxopentan-2-yl)-4-(2-(4-methylpiperazine-1-yl)thiazol-4-yl)benzamide |  | papp value (Caco-2 cells): 9e-07 cm/s |
